In brackets after ≈: the same amount, converted by molar mass. Where two headings read alike, the source gives them in different places. No end group written: not given here. Bounds are passed on as bounds.

These results are taken from patent publication US11648289B2, “Antibacterial method” (priority 2016, dated 2023).

Test [1] relates to EntEJ97/EntK1 resistant mutants of E. faecalis and E. faecium. Briefly: Challenge of EntEJ97/EntK1 resistant mutants with non-related bacteriocins. Type of test: cell-based. The following applies: all HR and LR mutants, compared to WT.
Excerpt: To analyze whether this active site is important for bacteriocin sensitivity, we changed the invariant residues in this motif —H18-E19-F20-G21-H22—one by one and altogether in the enterococcal RseP (invariant residues underlined) to alanine and then assessed for bacteriocin sensitivity.
In another test the test system is Sa3324. In words: microbe, parasite or virus in culture. As to the method: (§1) All the strains (see below) used in minimal inhibitory concentration (MIC) assays (Ovchinnikov et al., 2017, Front Microbiol., 8, p774, doi:10.3389/fmicb.2017.00774) were grown in BHI medium (Oxoid) at 30° C. without shaking. The tested strains were obtained from the LMG collection. […] NisinZ and micrococcin P1 were purified from source. Synthesized peptides were solubilized to concentrations of 10.0-0.1 mg/ml in 0.1% (vol/vol) trifluoroacetic acid and stored at −20° C. until use. Garvicin KS is made up of 3 peptides:
(§2) Bacteriocin activity was determined using a microtitre plate assay. The plates were incubated at 30° C. for 8 h and the growth was measured spectrophotometrically at 600 nm (A600) with 15 min intervals using SPECTROstarNano (BMG LABTECH, Germany). The MIC was defined as the bacteriocin concentration that inhibited the growth of the indicator strain by at least 50% in 200 μl culture (i.e., 50% of the turbidity of the control culture without bacteriocin).

The next test has as its system Sa3323. In words: microbe, parasite or virus in culture. As to the method:
as §1, §2

A further test relates to Sa 3242. In words: microbe, parasite or virus in culture. As to the method:
as §1, §2

A further test relates to SH 4016. In words: microbe, parasite or virus in culture. The protocol: as §1, §2
The next test has as its system SH 4015. Briefly: microbe, parasite or virus in culture. As to the method:
as §1, §2

The subject of another test is Sa ATCC 33591. In words: microbe, parasite or virus in culture. The protocol:
as §1, §2

The test system of a further test is Sa 3328. Briefly: microbe, parasite or virus in culture. The protocol: as §1, §2
The next test has as its system SP 4013. Briefly: organism not typed. As to the method:
as §1, §2

Another test deals with SP 4014. In words: organism not typed. As to the method: as §1, §2
The next test has as its system SP 4012. In words: organism not typed. The protocol:
as §1, §2

The next test has as its system KAVA. Briefly: MIC microtitre plate assay, pathogenic isolates. The class given is cell-based. As to the method:
The tested strains were obtained from the LMG collection. […] NisinZ and micrococcin P1 were purified from source. […] Garvicin KS is made up of 3 peptides:
Bacteriocin activity was determined using a microtitre plate assay. The plates were incubated at 30° C. for 8 h and the growth was measured spectrophotometrically at 600 nm (A600) with 15 min intervals using SPECTROstarNano (BMG LABTECH, Germany).

A further test relates to E. faecium (2). As to the method: as §1, §2
The next test relates to Listeria spp. (3). The protocol: as §1, §2
The next test has as its system S. pseudointermedius (3). As to the method: as §1, §2
The next test deals with E. faecalis (2). The following applies: 2. As to the method: as §1, §2
The test system of a further test is E. hirae (4). The protocol:
as §1, §2

For garvicin ML, the “sensitivity of EntEJ97/EntK1 resistant mutants to non-related bacteriocin” value in test [1] is “as sensitive as the WT strains”.
With `C=C(NC(=O)[C@@H](NC(=O)[C@H](Cc1c[nH]cn1)NC(=O)[C@@H](NC(=O)[C@H](CO)NC(=O)[C@@H]1CS[C@@H](C)[C@H]2NC(=O)[C@H](C)NC(=O)[C@H](NC(=O)[C@H](CCCCN)NC(=O)[C@H](CCSC)NC(=O)[C@H](CC(N)=O)NC(=O)[C@@H]3CS[C@@H](C)[C@@H](NC(=O)[C@H](CCCCN)NC(=O)[C@@H]4CS[C@@H](C)[C@@H](NC(=O)[C@@H]5CSC[C@@H](NC(=O)/C(=C/C)NC(=O)[C@@H](N)[C@@H](C)CC)C(=O)N[C@@H]([C@@H](C)CC)C(=O)NC(=C)C(=O)N[C@@H](CC(C)C)C(=O)N5)C(=O)N5CCC[C@H]5C(=O)NCC(=O)N4)C(=O)NCC(=O)N[C@@H](C)C(=O)N[C@@H](CC(C)C)C(=O)N[C@@H](CCSC)C(=O)NCC(=O)N3)[C@H](C)SC[C@H](NC2=O)C(=O)N[C@@H](CC(N)=O)C(=O)N1)[C@@H](C)CC)C(C)C)C(=O)N[C@@H](CCCCN)C(=O)O` [NisinZ, reference compound], the MIC is 1.6 µg/mL (≈ 0.48 µM) with Sa3324 (Sa3324 (S. aureus)); 6.25 µg/mL (≈ 1.88 µM) against Sa3323 (Sa3323 (S. aureus)); 3.1 µg/mL (≈ 0.931 µM) in the test on Sa 3242 (Sa 3242 (S. aureus)); 1.6 to 3.1 µg/mL in the test with SH 4016 (SH 4016 (S. haemolyticus)); 1.6 to 3.1 µg/mL with SH 4015 (SH 4015 (S. haemolyticus)); 0.8 µg/mL (≈ 0.24 µM) with Sa ATCC 33591 (Sa ATCC 33591 (S. aureus)). The MIC against Sa 3328 (Sa 3328 (S. aureus)) was found to be 0.8 µg/mL (≈ 0.24 µM); against SP 4013 (SP 4013 (S. pseudointermedius)) it was 0.4 µg/mL (≈ 0.12 µM); against SP 4014 (SP 4014 (S. pseudointermedius)), 0.4 µg/mL (≈ 0.12 µM); against SP 4012 (SP 4012 (S. pseudointermedius)), 0.4 µg/mL (≈ 0.12 µM).
“MIKKFPNPYTLAAKLTTYEINWYKQQYGRYPWERPVA [EntEJ97short]”: the MIC with Sa3324 is 6.25 µg/mL; in the test on Sa3323, 3.1 to 6.25 µg/mL; in the test on Sa 3242, 12.5 µg/mL; with SH 4016, 1.6 to 3.1 µg/mL; in the test on SH 4015 it was 1.6 to 3.1 µg/mL; with Sa ATCC 33591 (ATCC 33591) it was more than 50 µg/mL. Moreover, the MIC against Sa 3328 was 3.1 µg/mL; against KAVA (KAVA), more than 50 µg/mL; against SP 4013, 3.1 µg/mL; in the test with SP 4014, 1.6 to 3.1 µg/mL; against SP 4012 it was 3.1 µg/mL; against E. faecium (2) (2), 12.5 to 25 µg/mL. In addition, the MIC in the test with Listeria spp. (3) is more than 50 µg/mL; against S. pseudointermedius (3) it was 1.6 to 31 µg/mL; against E. faecalis (2) it was 1.6 µg/mL; with E. hirae (4), 0.1 to 0.4 µg/mL.
For “MKFKFNPTGTIVKKLTQYEINWYKQQYGRYPWERPVA [K1-EJ hybrid]”, the MIC is 6.25 µg/mL against Sa3324; 3.2 to 6.25 µg/mL against Sa3323; 3.1 µg/mL against Sa 3242; 0.8 to 1.6 µg/mL against SH 4016; 0.8 µg/mL with SH 4015; more than 50 µg/mL in the test with Sa ATCC 33591 (ATCC 33591). The MIC with Sa 3328 is 3.1 µg/mL; with KAVA (KAVA) it was more than 50 µg/mL; with SP 4013, 12.5 µg/mL; with SP 4014, 12.5 µg/mL; with SP 4012, 25 µg/mL; in the test on E. faecium (2) (E. faecium (2), Table 6B), less than 0.05 to 0.4 µg/mL. The MIC lay in the range of 6.25 to 25 µg/mL in the test on Listeria spp. (3), 12.5 to 25 µg/mL in the test on S. pseudointermedius (3), 1.6 to 3.1 µg/mL in the test with E. faecalis (2) and 0.1 to 0.4 µg/mL with E. hirae (4).
Turning to `C/C=C(\NC(=O)c1csc(-c2csc(-c3ccc4c(n3)-c3csc(n3)[C@H]([C@@H](C)O)NC(=O)c3csc(n3)[C@H](C(C)C)NC(=O)c3csc(n3)/C(=C/C)NC(=O)[C@H]([C@@H](C)O)NC(=O)c3csc-4n3)n2)n1)C(=O)NC[C@@H](C)O` [micrococcinP1, Micrococcin P1, reference compound], the MIC in the test on Sa3324 (Staphylococcus aureus) was 0.1 µg/mL (≈ 0.0874 µM); in the test with Sa3323 (Staphylococcus aureus) it was 0.1 µg/mL (≈ 0.0874 µM); against Sa 3242 (Staphylococcus aureus, 3242) it was 0.2 µg/mL (≈ 0.175 µM); in the test on SH 4016 (Staphylococcus haemolyticus), 1.6 µg/mL (≈ 1.4 µM); in the test with SH 4015 (Staphylococcus haemolyticus) it was 1.6 µg/mL (≈ 1.4 µM); with Sa ATCC 33591 (Staphylococcus aureus, ATCC33591) it was 0.4 µg/mL (≈ 0.35 µM). Moreover, the MIC in the test on Sa 3328 (Staphylococcus aureus, 3328) is 0.1 µg/mL (≈ 0.0874 µM); with KAVA, more than 12.5 µg/mL; against SP 4013, 0.4 µg/mL (≈ 0.35 µM); in the test on SP 4014, 0.8 µg/mL (≈ 0.699 µM); in the test with SP 4012, 0.4 µg/mL (≈ 0.35 µM).
Turning to “MLAKIKAMIKKFPNPYTLAAKLTTYEIAWFKNKHGYYPWEIPRC [EJ-K1 hybrid]”, the MIC is 12.5 µg/mL with Sa3324; 3.2 to 6.25 µg/mL in the test on Sa3323; 12.5 µg/mL in the test on Sa 3242; 50 µg/mL against SH 4016; 50 µg/mL with SH 4015; more than 50 µg/mL with Sa ATCC 33591 (ATCC 33591). In addition, the MIC was 6.25 µg/mL against Sa 3328; more than 50 µg/mL against KAVA (KAVA); more than 50 µg/mL with SP 4013; more than 50 µg/mL with SP 4014; more than 50 µg/mL in the test with SP 4012; 3.15 µg/mL in the test with E. faecium (2) (2). Moreover, the MIC in the test with S. pseudointermedius (3) is 50 µg/mL; against E. faecalis (2) it was 25 to 50 µg/mL; against E. hirae (4) it was 3.2 to 6.3 µg/mL.

B1: GarKS: Garvicin KS is made up of 3 peptides (SEQ ID NO:43, 44, 45) (peptide, listed as Lactococcus garvieae)
chain 1: MGAIIKAGAKIVGKGVLGGGASWLGWNVGEKIWK
chain 2: MGAIIKAGAKIIGKGLLGGAAGGATYGGLKKIFG
chain 3: MGAIIKAGAKIVGKGALTGGGVWLAEKLFGGK
With B1, the MIC worked out at 6.25 µg/mL with Sa3324 (Sa3324 (S. aureus)); 6.25 µg/mL against Sa3323 (Sa3323 (S. aureus)); 3.1 µg/mL against Sa 3242 (Sa 3242 (S. aureus)); 6.25 µg/mL against SH 4016 (SH 4016 (S. haemolyticus)); 6.25 µg/mL in the test on SH 4015 (SH 4015 (S. haemolyticus)); 12.5 µg/mL against Sa ATCC 33591 (Sa ATCC 33591 (S. aureus)). The MIC in the test with Sa 3328 (Sa 3328 (S. aureus)) is 3.1 µg/mL; against KAVA (KAVA), 6.25 to 12.5 µg/mL; against SP 4013 (SP 4013 (S. pseudointermedius)) it was 6.25 µg/mL; against SP 4014 (SP 4014 (S. pseudointermedius)) it was 6.25 µg/mL; against SP 4012 (SP 4012 (S. pseudointermedius)), 6.25 µg/mL.
